Values of other authors as cited in PMC11676896, “Protective Action of Cannabidiol on Tiamulin Toxicity in Humans—In Vitro Study” (International Journal of Molecular Sciences, 2024).

Key:
[1] = design: method as in previous studies; conditions: CBD 1.56 and 3.125 µg/mL; ref previous studies; cited from earlier work
CYP1A1 = system: CYP1A1; design: method as in PMID 26187180; conditions: cited from earlier work

C=C(C)[C@@H]1CCC(C)=C[C@H]1c1c(O)cc(CCCCC)cc1O [CBD, cannabidiol]
cell viability with CBD alone [1]: did not show a decrease in cell viability | induction of CYP1A1 expression (CYP1A1): strongest inducer of CYP1A1 expression
